Where a name gives a salt, the structure may show the parent alone.
How the values were obtained:
IL-1β = assay: THP-1 AlphaLISA IL-1β cytokine assay; format: cell-based; details: Homo sapiens, differentiated THP-1 cells
Experimental: Biological Example 1—THP-1 AlphaLISA IL-1β and IL-6 Cytokine Assay Measuring Inhibitory Effects on IL-1, and IL-6 Cytokine Output from THP-1s The cytokine inhibition profiles of compounds of formula (I) were determined in a differentiated THP-1 cell assay. All assays were performed in RPMI-1640 growth medium (Gibco), supplemented with 10% fetal bovine serum (FBS; Gibco), 1% penicillin-streptomycin and 1% sodium pyruvate unless specified otherwise. The IL-1β and IL-6 cytokine inhibition assays were each run in a background of differentiated THP-1 cells as described below. All reagents described were from Sigma-Aldrich unless specified otherwise. Compounds were prepared as 10 mM DMSO stocks. THP-1 cells were expanded as a suspension up to 80% confluence in appropriate growth medium. Cells were harvested, suspended, and treated with an appropriate concentration of phorbol 12-myristate 13-acetate (PMA) over a 72 hr period (37° C./5% CO2). Following 72 hrs of THP-1 cell incubation, cellular medium was removed and replaced with fresh growth media containing 1% of FBS. Working concentrations of compounds were prepared separately in 10% FBS treated growth medium and pre-incubated with the cells for 30 minutes (37° C./5% CO2). Following the 30 minute compound pre-incubation, THP-1s were treated with an appropriate concentration of LPS and the THP-1s were subsequently incubated for a 24 hr period (37° C./5% CO2). An appropriate final concentration of Nigericin was then dispensed into the THP-1 plates and incubated for 1 hour (37° C./5% CO2) before THP-1 supernatants were harvested and collected in separate polypropylene 96-well holding plates. Reagents from each of the IL-1β and IL-6 commercial kits (Perkin Elmer) were prepared and run according to the manufacturer's instructions. Subsequently, fluorescence signal detection in a microplate reader was measured (EnVision® Multilabel Reader, Perkin Elmer). Percentage inhibition was calculated per cytokine by normalizing the sample data to the high and low controls used within each plate (+/−LPS respectively). Percentage inhibition was then plotted against compound concentration and the 50% inhibitory concentration (IC50) was determined from the resultant concentration-response curve.

NRF2 = NRF2 activation assay (DiscoverX PathHunter NRF2 translocation kit, U2OS cells); format: cell-based
Experimental: Biological Example 2—NRF2 Activation Assay Measuring Compound Activation Effects on the Anti-Inflammatory Transcription Factor NRF2 in DiscoverX PathHunter NRF2 Translocation Kit Potency and efficacy of compounds of formula (I) against the target of interest to activate NRF2 (nuclear factor erythroid 2-related factor 2) were determined using the PathHunter NRF2 translocation kit (DiscoverX). The NRF2 translocation assay was run using an engineered recombinant cell line, utilising enzyme fragment complementation to determine activation of the Keap1-NRF2 protein complex and subsequent translocation of NRF2 into the nucleus. Enzyme activity was quantified using a chemiluminescent substrate consumed following the formation of a functional enzyme upon PK-tagged NRF2 translocation into the nucleus. Additionally, a defined concentration of dimethyl fumarate was used as the ‘High’ control to normalise test compound activation responses to. U2OS PathHunter eXpress cells were thawed from frozen prior to plating. Following plating, U2OS cells were incubated for 24 hrs (37° C./5% CO2) in commercial kit provided cell medium. Following 24 hrs of U2OS incubation, cells were directly treated with an appropriate final concentration of compound. Following compound treatment, the U2OS plates were incubated for a further 6 hours (37° C./5% CO2) before detection reagent from the PathHunter NRF2 commercial kit was prepared and added to test plates according to the manufacturer's instructions. Subsequently, the luminescence signal detection in a microplate reader was measured (PHERAstar®, BMG Labtech). Percentage activation was calculated by normalising the sample data to the high and low controls used within each plate (+/−DMF). Percentage activation/response was then plotted against compound concentration and the 50% activation concentration (EC50) was determined from the plotted concentration-response curve.

[1] = Hepatocyte stability assay, human; format: in vitro ADME; details: cryopreserved hepatocytes, 10 μM compound
From the text: (§1) Biological Example 3—Hepatocyte Stability Assay
(§2) Defrosted cryo-preserved hepatocytes (viability >70%) are used to determine the metabolic stability of a compound via calculation of intrinsic clearance (CIint; a measure of the removal of a compound from the liver in the absence of blood flow and cell binding). Clearance data are particularly important for […] as they can be used in combination with in vivo data to predict the half-life and oral bioavailability of a drug.
(§3) The metabolic stability in hepatocytes assay involves a time-dependent reaction using both positive and negative controls. The cells must be pre-incubated at 37° C. then spiked with test compound (and positive control); samples taken at pre-determined time intervals are analysed to monitor the change in concentration of the initial drug compound over 60 minutes. A buffer incubation reaction (with no hepatocytes present) acts as a negative control and two cocktail solutions, containing compounds with known high and low clearance values (verapamil/7-hydroxycoumarin and propranolol/diltiazem), act as positive controls. • 1. The assay is run with a cell concentration of 0.5×10^6 cells/mL in Leibovitz buffer. • 2. All compounds and controls are run in duplicate. • 3. Compound concentration is 10 μM. • 4. All compounds and controls are incubated with both cells and buffer to show turnover is due to hepatic metabolism. • 5. All wells on the incubation plate will have 326.7 μL of either cells or buffer added. • 6. Prior to assay, cell and buffer-only incubation plates are preincubated for 10 mins at 37° C. • 7. The assay is initiated by adding compounds, 3.3 μL of 1 mM in 10% DMSO-90% Buffer; final DMSO concentration is 0.1%. • 8. Samples are taken at regular timepoints (0, 5, 10, 20, 40, 60 min) until 60 mins. • 9. Sample volume is 40 μL and it is added to 160 μL of crash solvent (acetonitrile with internal standard) and stored on ice. • 10. At the end of the assay, the crash plates are centrifuged at 3500 rpm for 20 mins at 4° C. • 11. 80 μL of clear supernatant is removed and mixed with 80 μL of deionised water before being analysed by LC-MS/MS.
(§4) Raw LC-MS/MS data are exported to, and analysed in, Microsoft Excel for determination of intrinsic clearance. The percentage remaining of a compound is monitored using the peak area of the initial concentration as 100%. Intrinsic clearance and half-life values are calculated using a graph of the natural log of percentage remaining versus the time of reaction in minutes. Half-life (min) and intrinsic clearance (CIint in μL min^−1 10^−6 cells) values are calculated using the gradient of the graph (the elimination rate constant, k) and Equations 1 and 2.

hepatocytes [2] = assay: Hepatocyte stability assay, human; format: in vitro ADME; details: 10 μM compound
From the text: as §1, §2, §3, §4

[3] = Hepatocyte stability assay, mouse; format: in vitro ADME; details: mouse, cryopreserved hepatocytes, 10 μM compound
From the text: as §1, §2, §3, §4

hepatocytes [4] = assay: Hepatocyte stability assay, mouse; format: in vitro ADME; details: 10 μM compound
From the text: as §1, §2, §3, §4

[5] = +GSH, normalised to dimethyl fumarate high control, Table 3
[6] = −GSH, normalised to dimethyl fumarate high control, Table 3
[7] = +GSH, Table 4, compounds of formula (II)
[8] = −GSH, Table 4, compounds of formula (II)

| Structure (SMILES) | IC50 (IL-1β; LPS then Nigericin, Table 1) [µM] | EC50 (NRF2; +GSH, Table 3) [µM] | NRF2 activation Emax (NRF2; [5]) | EC50 (NRF2; −GSH, Table 3) [µM] | NRF2 activation Emax (NRF2; [6]) | half-life at 10 μM ([1]; Table 5, read-out: T½) [min] | CIint (hepatocytes [2]; Table 5) | half-life at 10 μM ([3]; Table 5, read-out: T½) [min] | CIint (hepatocytes [4]; Table 5) | IC50 (IL-1β; Table 2, compounds of formula (II)) [µM] | EC50 (NRF2; [7]) [µM] | NRF2 activation Emax (NRF2; [7]) | EC50 (NRF2; [8]) [µM] | NRF2 activation Emax (NRF2; [8]) | half-life at 10 μM ([1]; Table 6, read-out: T½) [min] | CIint (hepatocytes [2]; Table 6) | half-life at 10 μM ([3]; Table 6, read-out: T½) [min] | CIint (hepatocytes [4]; Table 6) | T½ (hepatocytes [2]; Table 6) [min] |
| --- | --- | --- | --- | --- | --- | --- | --- | --- | --- | --- | --- | --- | --- | --- | --- | --- | --- | --- | --- |
| CCCCCC[C@@H](C)OC(=O)/C=C/C(=O)OCCC(=O)O [Example 14, (R,E)-3-((4-(octan-2-yloxy)-4-oxobut-2-enoyl)oxy)propanoic acid] | < 2.5 | 6 to 20 | ++ (++ means 100-149) | 2.1 to 6 | +++ (+++ means 150-199%) | < 5 | + (+ means >277) | < 5 | + (+ means >277) |  |  |  |  |  |  |  |  |  |  |
| CC(C)(COC(=O)/C=C/C(=O)OC1CCCCCCC1)C(=O)O [Example 7, (E)-3-((4-(cyclooctyloxy)-4-oxobut-2-enoyl)oxy)-2,2-dimethylpropanoic acid] | < 2.5 | 6 to 20 | + (+ means >17.1-99) | < 2 | ++++ (++++ means 200-250%) | 5 to 29 | +++ (+++ means 50-149) | < 5 | + (+ means >277) |  |  |  |  |  |  |  |  |  |  |
| O=C(O)/C=C/C(=O)OC1(c2ccc(C(F)(F)F)s2)CCC1 [Intermediate 36, (E)-4-oxo-4-(1-(5-(trifluoromethyl)thiophen-2-yl)cyclobutoxy)but-2-enoic acid] |  |  |  |  |  |  |  |  |  | < 6 | < 23 | ++ (++ means >87-114%) | < 23 | +++ (+++ means >114-150%) | > 100 | ++++ (++++ means 5-15) | 30 to 100 | ++ (++ means >30-110) |  |
| C[C@H](OC(=O)/C=C/C(=O)OC1CCCCCCC1)C(=O)O [Example 6, (S,E)-2-((4-(cyclooctyloxy)-4-oxobut-2-enoyl)oxy)propanoic acid] | < 2.5 | 6 to 20 | + (+ means >17.1-99) | < 2 | ++++ (++++ means 200-250%) | 30 to 100 | ++++ (++++ means <50) | 5 to 10 | ++ (++ means 200-277) |  |  |  |  |  |  |  |  |  |  |
| CCCCCC[C@@H](C)OC(=O)/C=C/C(=O)OCC(=O)O [Example 13, 2-[(E)-4-[(1R)-1-methylheptoxy]-4-oxo-but-2-enoyl]oxyacetic acid] | 2.5 to 6.1 | 20 to 100 | ++ (++ means 100-149) | < 2 | +++ (+++ means 150-199%) | 5 to 29 | +++ (+++ means 50-149) | < 5 | + (+ means >277) |  |  |  |  |  |  |  |  |  |  |
| CC(CC(=O)O)OC(=O)/C=C/C(=O)OC1CCCCCCC1 (stereo not shown) [Example 11, (E)-3-((4-(cyclooctyloxy)-4-oxobut-2-enoyl)oxy)butanoic acid] | < 2.5 | 20 to 100 | + (+ means >17.1-99) | < 2 | ++++ (++++ means 200-250%) | 5 to 29 | +++ (+++ means 50-149) | < 5 | + (+ means >277) |  |  |  |  |  |  |  |  |  |  |
| COC(=O)/C=C/C(=O)OCCN1C(=O)CCC1=O [2-(2,5-Dioxopyrrolidin-1-yl)ethyl methyl fumarate, reference compound] | 6.2 |  |  |  |  | < 5 | >277 μL min^−1 10^−6 cells | < 5 | >277 μL min^−1 10^−6 cells |  |  |  |  |  |  | >277 μL min^−1 10^−6 cells | < 5 | >277 μL min^−1 10^−6 cells | <5 |
| O=C(O)COC(=O)/C=C/C(=O)OC1CC2(CCC2)C1 [Example 9, (E)-2-((4-oxo-4-(spiro[3.3]heptan-2-yloxy)but-2-enoyl)oxy)acetic acid] | 2.5 to 6.1 |  |  |  |  | 30 to 100 | ++++ (++++ means <50) | < 5 | + (+ means >277) |  |  |  |  |  |  |  |  |  |  |
| O=C(O)COC(=O)/C=C/C(=O)OC1CCCCCC1 [Example 10, (E)-2-((4-(cycloheptyloxy)-4-oxobut-2-enoyl)oxy)acetic acid] | < 2.5 |  |  |  |  | 30 to 100 | ++++ (++++ means <50) | < 5 | + (+ means >277) |  |  |  |  |  |  |  |  |  |  |

— patent publication US20240010606A1, “FUMARATE DERIVATIVES AND THEIR MEDICAL USE” (Sitryx Therapeutics Limited, priority 2020, published 2024)
